“And” between values parts separate entries of the source, which are not always exact repeats. Equal entries are not always repeated. Where two headings read alike, the source gives them in different places.
Columns and labels:
[1] = tested on: KAP organoids; test: cell viability in KAP organoids (CellTiter-Glo); format: cell-based, mouse; conditions: for viability at 1 µM: Mus musculus
Procedure: (§1) For in vitro treatment studies, organoids were mechanically dissociated and digested using TrypLE supplemented with 100 µg ml^−1 DNaseI and 10.5 µM Y-27632 dihydrochloride (Invitrogen) at 37 °C. A total of 1,000–2,000 single cells were plated per well in white 96-well plates (Greiner) in culture medium containing 10% GFR Matrigel or Cultrex BME. The treatment with doxycycline (5 µg ml^−1), pharmacological inhibitors or corresponding volumes of DMSO was started 24 h after plating. Doxycycline was obtained from Sigma-Aldrich. […] Cell viability was measured by means of CellTiter-Glo 3D or CellTiter-Glo 2.0 reagent (Promega) according to the manufacturers’ instructions and the Infinite M Plex reader (Tecan, i-control version 3.9.1 software). Results were normalized to vehicle (DMSO) or to shNC. For cell-doubling assays, the cell number was quantified at the corresponding time points using Guava EasyCyte flow cytometer (Luminex, CytoSoft v5.2 software).

[2] = tested on: PDO6; test: cell viability in patient-derived CRC organoids PDO6; format: cell-based, human
Procedure: as §1

[3] = tested on: PDO8; test: cell viability in patient-derived CRC organoids PDO8; format: cell-based, human
Procedure: as §1

[4] = tested on: PDO10; test: cell viability in patient-derived CRC organoids PDO10; format: cell-based, human
Procedure: as §1

[5] = tested on: PDO11; test: cell viability in patient-derived CRC organoids PDO11; format: cell-based, human
Procedure: as §1

[6] = tested on: PDO13; test: cell viability in patient-derived CRC organoids PDO13; format: cell-based, human
Procedure: as §1

[7] = tested on: PDO15; test: cell viability in patient-derived CRC organoids PDO15; format: cell-based, human
Procedure: as §1

[8] = tested on: HCT-15; test: cell viability in human CRC cell line HCT-15; format: cell-based; conditions: 4 d
Procedure: (§2) To generate KAP^2D cells, KAP organoids were isolated from Matrigel, fragmented by mechanical dissociation and plated without any extracellular matrix on common cell culture dishes. Phoenix-Eco packaging cells (CRL-3214), HCT-15 (CCL-225), HCT 116 (CCL-247), COLO 205 (CCL-222), LS 174T (CL-188), RKO (CRL-2577) and HT-29 (HTB-38) were obtained from the American Type Culture Collection. The cells were cultured at 37 °C and 7% CO2 with RPMI (KAP^2D cells) or DMEM (other cell lines), supplemented with 10% FBS and penicillin–streptomycin. KAP^2D cells were authenticated using PCR (Kras locus and Trp53 locus). Phoenix-Eco packaging cells and HCT-15, HCT 116, COLO 205, LS 174T, RKO and HT-29 cells were authenticated by the provider using short tandem repeat profiling. No commonly misidentified cell lines were used. Mycoplasma contamination was excluded by a PCR-based analysis.
as §1

[9] = tested on: RKO; test: cell viability in human CRC cell line RKO; format: cell-based; conditions: ED Fig. 9g, replicates
Procedure: as §2, §1

[10] = tested on: KAP^2D cells; test: EdU incorporation in KAP^2D cells; format: cell-based, mouse; conditions: replicates, experiment and repetition
Procedure: Immunofluorescence staining on cells and organoids was performed on glass coverslips or tissue culture chambers (Sarstedt). Organoids were plated in medium containing 10% Matrigel or Cultrex BME. The cultures were fixed with 4% paraformaldehyde and stained with specific antibodies and DAPI (Vector Labs). All used antibodies and dilutions are listed in the Nature Portfolio Reporting Summary. For analyzing DNA synthesis, the Molecular Probes Click-iT EdU Alexa Fluor 555 kit was used 24 h after EdU incorporation with DAPI counterstaining. SA-β-Gal staining of cells was performed in cell culture dishes (cells) or tissue culture chambers (organoids) after fixation with 0.5% glutaraldehyde as described above. Human cultures were incubated with X-Gal solution at pH 6.0 for ~4 h.

`O=C(NCCN1CCOCC1)c1ccc2c(c1)C(=O)c1ccc(Nc3ccc(F)c(NC(=O)c4ccccc4)c3)cc1CC2` [Compound 1639] was tested, and the “Cell viability (%)” value ([1]; Fig. 1g, 0.5 µM, replicates) was 93.61% and 119.78% and 82.99%, the “Cell viability (%)” value ([1]; Fig. 1g, 1 µM, replicates) was 54.56% and 39.62% and the “Cell viability (%)” value ([1]; Fig. 2b, compound screen, replicates) was 45.26% and 35.57% and 35.59%. The “Cell viability (%)” value ([1]; Fig. 2f, 0,5 µM, replicates, 5 µM) was 109.96% and 85.33% and 68.50%, the “Cell viability (%)” value ([1]; Fig. 2f, 0,25 µM, replicates, 25 µM) was 115.00% and 101.97% and 82.44% and the “Cell viability (%)” value ([1]; Fig. 2f, 1 µM, replicates) was 55.27% and 54.06%. The viability at 1 µM ([1]; Fig. 1g, 1 µM, replicates, read-out: Cell viability (%)) was 51.8%, the viability at 1 µM ([1]; Fig. 2f, 1 µM, replicates, read-out: Cell viability (%)) was 72.9% and the viability at 1 µM ([1]; drug screen in KAP organoids, 1 µM concentration, n = 3, mean, read-out: Cell viability (% of DMSO)) was 38.8%. The “induction of cell death in KAP organoids (in words)” value ([1]; viability assay) was “moderate but significant induction of cell death”, the viability at 1 µM ([2]; Homo sapiens, 96 h, PDO6, 1 µM, 4 days, read-out: Cell viability (%)) was 88.1% and the “Cell viability (%)” value ([2]; PDO6, 0.5 µM, 4 d, 0.5 µM) was 89.33% and 120.75% and 95.55%. For the same molecule, the “Cell viability (%)” value ([2]; PDO6, 1 µM, 4 days, 1 µM) was 103.21% and 96.02%, the viability at 0.5 µM ([3]; Homo sapiens, 96 h, PDO8, 0.5 µM, 4 d) was 82.7% and the “Cell viability (%)” value ([3]; PDO8, 0.5 µM, 4 d, 0.5 µM) was 82.90% and 74.01%. The “Cell viability (%)” value ([3]; PDO8, 1 µM, 4 days, 1 µM) was 84.53% and 69.94% and 45.12%, the viability at 0.5 µM ([4]; Homo sapiens, 96 h, PDO10, 0.5 µM, 4 d, read-out: Cell viability (%)) was 90.3% and the viability at 1 µM ([4]; Homo sapiens, 96 h, PDO10, 1 µM, 4 days, read-out: Cell viability (%)) was 87.1%. The “Cell viability (%)” value ([4]; PDO10, 0.5 µM, 4 d, 0.5 µM) was 99.84% and 101.72%, the “Cell viability (%)” value ([4]; PDO10, 1 µM, 4 days, 1 µM) was 92.00% and 89.92% and the “Cell viability (%)” value ([5]; PDO11, 0.5 µM, 4 d, 0.5 µM) was 109.25% and 122.99% and 99.10%. For the same molecule, the “Cell viability (%)” value ([5]; PDO11, 1 µM, 4 days, 1 µM) was 102.62% and 119.73% and 93.65%, the viability at 0.5 µM ([6]; Homo sapiens, 96 h, PDO13, 0.5 µM, 4 d, read-out: Cell viability (%)) was 93.8% and the viability at 1 µM ([6]; Homo sapiens, 96 h, PDO13, 1 µM, 4 days, read-out: Cell viability (%)) was 84.5%. The “Cell viability (%)” value ([6]; PDO13, 0.5 µM, 4 d, 0.5 µM) was 111.59% and 96.20%, the “Cell viability (%)” value ([6]; PDO13, 1 µM, 4 days, 1 µM) was 86.80% and 77.48% and the viability at 0.5 µM ([7]; Homo sapiens, 96 h, PDO15, 0.5 µM, 4 d, read-out: Cell viability (%)) was 101%. The viability at 1 µM ([7]; Homo sapiens, 96 h, PDO15, 1 µM, 4 days, read-out: Cell viability (%)) was 87.7%, the “Cell viability (%)” value ([7]; PDO15, 0.5 µM, 4 d, 0.5 µM) was 102.64% and 92.86% and the “Cell viability (%)” value ([7]; PDO15, 1 µM, 4 days, 1 µM) was 91.79% and 86.01%. The “HCT-15 Cell viability (%)” value ([8]; 0.0137 µM) was 92.80% and 91.50% and 85.00% and 82.22% and 80.95%, the “HCT-15 Cell viability (%)” value ([8]; 0.0412 µM) was 78.90% and 80.07% and 94.65% and 93.32% and 92.61% and the “HCT-15 Cell viability (%)” value ([8]; 0.1235 µM) was 84.07% and 87.40% and 91.28% and 90.94% and 89.46%. The “HCT-15 Cell viability (%)” value ([8]; 0.3704 µM) was 84.12% and 88.83% and 87.00% and 85.77% and 86.10%, the “HCT-15 Cell viability (%)” value ([8]; 1.1111 µM) was 77.30% and 80.39% and 72.06% and 72.72% and 71.41% and the “HCT-15 Cell viability (%)” value ([8]; 3.3333 µM) was 62.02% and 64.03% and 55.98% and 56.04% and 55.89%. For the same molecule, the “HCT-15 Cell viability (%)” value ([8]; 10.0000 µM) was 36.90% and 37.04% and 27.63% and 27.72% and 28.84%, the viability at 0.0137 µM ([8]; Homo sapiens, HCT-15, 96 h, 0.0137 µM, read-out: HCT-15 Cell viability (%)) was 95.1% and the viability at 0.0412 µM ([8]; Homo sapiens, HCT-15, 96 h, 0.0412 µM, read-out: HCT-15 Cell viability (%)) was 77.5%. The viability at 0.1235 µM ([8]; Homo sapiens, HCT-15, 96 h, 0.1235 µM, read-out: HCT-15 Cell viability (%)) was 82.6%, the viability at 0.3704 µM ([8]; Homo sapiens, HCT-15, 96 h, 0.3704 µM, read-out: HCT-15 Cell viability (%)) was 80.4% and the viability at 1.1111 µM ([8]; Homo sapiens, HCT-15, 96 h, 1.1111 µM, read-out: HCT-15 Cell viability (%)) was 74%. For the same molecule, the viability at 3.3333 µM ([8]; Homo sapiens, HCT-15, 96 h, 3.3333 µM, read-out: HCT-15 Cell viability (%)) was 56.5%, the viability at 10 µM ([8]; Homo sapiens, HCT-15, 96 h, 10.0000 µM, read-out: HCT-15 Cell viability (%)) was 36.6% and the “RKO Cell viability (%)” value ([9]; 0.0137 µM, Repetition) was 124.75% and 148.62% and 118.75%. The “RKO Cell viability (%)” value ([9]; 0.0137 µM, first experiment) was 98.53% and 90.98%, the “RKO Cell viability (%)” value ([9]; 0.0412 µM, Repetition) was 93.50% and 149.21% and 112.61% and the “RKO Cell viability (%)” value ([9]; 0.0412 µM, first experiment) was 86.59% and 83.94%. For the same molecule, the “RKO Cell viability (%)” value ([9]; 0.1235 µM, Repetition) was 125.44% and 110.57%, the “RKO Cell viability (%)” value ([9]; 0.1235 µM, first experiment) was 85.12% and 86.17% and the “RKO Cell viability (%)” value ([9]; 0.3704 µM, Repetition) was 111.28% and 89.40%. For the same molecule, the “RKO Cell viability (%)” value ([9]; 0.3704 µM, first experiment) was 77.62% and 74.11%, the “RKO Cell viability (%)” value ([9]; 1.1111 µM, Repetition) was 109.66% and 139.17% and 117.64% and the “RKO Cell viability (%)” value ([9]; 1.1111 µM, first experiment) was 95.27% and 88.88%. For the same molecule, the “RKO Cell viability (%)” value ([9]; 3.3333 µM, Repetition) was 74.32% and 93.61% and 73.54%, the “RKO Cell viability (%)” value ([9]; 3.3333 µM, first experiment) was 74.12% and 74.43% and the “RKO Cell viability (%)” value ([9]; 10.0000 µM, Repetition) was 42.39% and 44.96%. For the same molecule, the “RKO Cell viability (%)” value ([9]; 10.0000 µM, first experiment) was 30.57% and 37.00%, the viability at 0.0137 µM ([9]; Homo sapiens, RKO, 0.0137 µM, first experiment, read-out: RKO Cell viability (%)) was 96.7% and the viability at 0.0412 µM ([9]; Homo sapiens, RKO, 0.0412 µM, first experiment, read-out: RKO Cell viability (%)) was 88.2%. It also gave a viability at 0.1235 µM ([9]; Homo sapiens, RKO, 0.1235 µM, Repetition, read-out: RKO Cell viability (%)) of 111%, a viability at 0.1235 µM ([9]; Homo sapiens, RKO, 0.1235 µM, first experiment, read-out: RKO Cell viability (%)) of 82.2% and a viability at 0.3704 µM ([9]; Homo sapiens, RKO, 0.3704 µM, first experiment, read-out: RKO Cell viability (%)) of 86%. It also gave a viability at 1.1111 µM ([9]; Homo sapiens, RKO, 1.1111 µM, first experiment, read-out: RKO Cell viability (%)) of 85.9%, a viability at 3.3333 µM ([9]; Homo sapiens, RKO, 3.3333 µM, first experiment, read-out: RKO Cell viability (%)) of 75% and a viability at 10 µM ([9]; Homo sapiens, RKO, 10.0000 µM, Repetition, read-out: RKO Cell viability (%)) of 43.1%. For the same molecule, the viability at 10 µM ([9]; Homo sapiens, RKO, 10.0000 µM, first experiment, read-out: RKO Cell viability (%)) was 31.2%, the “EdU+ cells” value ([10]; Fig. 4j) was 87.08% and 89.84% and 80.20% and 80.71% and 77.64% and 85.43% and 87.34% and 80.43% and the “EdU+ cells” value ([10]; Fig. 5b) was 16.24% and 18.58% and 17.71% and 16.69% and 15.27% and 21.79% and 19.62% and 11.52%.

— publication PMC11864979, “First-in-class ultralong-target-residence-time p38α inhibitors as a mitosis-targeted therapy for colorectal cancer” (Nature Cancer, 2025)
